pIC50: −log10 of the molar value. Where a name gives a salt, the structure may show the parent alone. Read-outs that look alike come from different tables or passages of the source.
Legend:
canine TRPM8 = target: T1, canine TRPM8 (Canis lupus familiaris, UniProt Q1A7N1); assay: In vitro canine TRPM8 functional assay (icilin-induced intracellular Ca2+ increase, FLIPR/FDSS); format: cell-based; conditions: for inhibition at 0.2 µM / % Inh @ 0.2 μM: 0.2 μM compound, HEK293 canine TRPM8; for % Inh @ 1 μM: 1 μM compound, samples diluted from 10 mM stock with 100% DMSO
T1 construct: expressed in transfected cells
T1 sequence (Q1A7N1 1-1104): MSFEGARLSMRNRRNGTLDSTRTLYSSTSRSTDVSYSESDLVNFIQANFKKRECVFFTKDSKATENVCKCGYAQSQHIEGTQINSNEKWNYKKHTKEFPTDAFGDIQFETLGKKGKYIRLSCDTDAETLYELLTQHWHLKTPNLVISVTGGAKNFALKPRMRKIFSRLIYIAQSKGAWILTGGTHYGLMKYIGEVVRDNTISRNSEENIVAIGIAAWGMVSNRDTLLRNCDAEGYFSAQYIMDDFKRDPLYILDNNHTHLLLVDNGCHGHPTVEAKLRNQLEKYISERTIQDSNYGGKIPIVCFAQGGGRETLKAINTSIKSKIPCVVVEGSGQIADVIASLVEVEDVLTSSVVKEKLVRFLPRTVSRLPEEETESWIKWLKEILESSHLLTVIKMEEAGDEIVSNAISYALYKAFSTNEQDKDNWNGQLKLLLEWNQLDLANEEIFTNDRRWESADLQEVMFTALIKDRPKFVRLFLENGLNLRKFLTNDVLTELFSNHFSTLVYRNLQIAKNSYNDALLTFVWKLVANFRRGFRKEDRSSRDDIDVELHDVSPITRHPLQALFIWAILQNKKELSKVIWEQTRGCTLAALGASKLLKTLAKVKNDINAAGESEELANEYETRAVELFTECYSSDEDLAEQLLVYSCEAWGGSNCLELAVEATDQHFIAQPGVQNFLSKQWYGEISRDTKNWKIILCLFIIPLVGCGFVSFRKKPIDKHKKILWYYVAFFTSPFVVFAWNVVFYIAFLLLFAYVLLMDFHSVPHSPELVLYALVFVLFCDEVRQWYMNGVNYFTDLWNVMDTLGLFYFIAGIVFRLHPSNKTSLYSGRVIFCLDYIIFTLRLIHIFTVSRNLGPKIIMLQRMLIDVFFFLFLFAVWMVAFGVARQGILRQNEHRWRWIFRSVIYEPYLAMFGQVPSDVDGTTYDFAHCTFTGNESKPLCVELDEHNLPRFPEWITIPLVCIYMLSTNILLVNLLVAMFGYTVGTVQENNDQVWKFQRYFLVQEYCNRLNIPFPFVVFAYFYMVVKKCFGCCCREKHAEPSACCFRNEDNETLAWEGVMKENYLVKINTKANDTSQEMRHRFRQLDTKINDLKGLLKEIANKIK
Procedure: The functional activity of representative compounds of the formula (I) of the present invention was quantified by measuring changes in intracellular calcium concentration using a Ca^2+-sensitive fluorescent dye. The changes in fluorescent signal were monitored by a fluorescence plate reader, either a FLIPR™ (Molecular Devices) or FDSS (Hamamatsu).
HEK293 cells stably expressing canine TRPM8 were routinely grown as monolayers in Dulbecco's minimum essential medium supplemented with 10% FBS, 2 mM L-glutamine, 100 units/mL penicillin, 100 ug/mL streptomycin and 400 μg/mL G418. Cells were maintained in 5% CO2 at 37° C. At 24 hr prior to assay, cells were seeded in black wall, clear-base poly-D-lysine coated 384-well plates (BD Biosciences, N.J., USA) at a density of 5,000 cells per well in culture medium and grown overnight in 5% CO2 at 37° C. On assay day, growth media was removed, and cells were loaded with Calcium 3 Dye (Molecular Devices) for 35 min at 37° C., under 5% CO2 and then incubated for 25 min at room temperature and atmosphere. Subsequently, cells were tested for agonist-induced increases in intracellular Ca^2+ levels using FLIPR™ or FDSS. Cells were treated with compounds of the formula (I) at varying concentrations and intracellular Ca^2+ was measured for 5 min prior to the addition of icilin to all wells to achieve a final concentration that produces approximately an 80% maximal response.
Basal FI was subtracted prior to normalizing data to percent of maximal response. Curves were generated using the average of quadruplicate wells for each data point using nonlinear regression of either sigmoidal dose response or sigmoidal dose response (variable slope). Finally, the EC50 and IC50 values were calculated with the best-fit curve determined by GraphPad Prism
Test samples were prepared by diluting a 10 mM stock solution of test compound with 100% DMSO prior to addition to assay buffer.

Male Sprague Dawley rats = assay: Inhibition of icilin-induced "wet-dog" shakes in rats; format: in vivo; conditions: rat; 10 mg/kg p.o.; 60 min pre-icilin; vehicle 0.5% HPMC
Procedure: Male Sprague Dawley rats ([…], Charles River Labs, n=6-9/treatment) were used to evaluate the ability of test compounds to block icilin-induced “wet-dog” shakes (WDS). The test compound was administered at 10 mg/kg in an appropriate vehicle, such as hydroxypropyl-β-cyclodextrin (HP-β-CD), methocellulose, 10% Solutol, H2O or the like, by the appropriate route (e.g., i.p or p.o), 30-60 min before icilin. Icilin was then administered in PEG-400 or 10% solutol/H2O, at 1.0 or 3.0 mg/kg, i.p. and spontaneous “wet-dog” shakes were counted 10-20 min post-icilin.
A representative compound of the present invention was tested at 10 mg/kg p.o. and 60 min pre-icilin, according to the procedure described above. Results, as listed in Table 8 below, are presented as a percent inhibition of shakes, which was calculated as [1−(test compound WDS count/vehicle WDS count)]×100.

[1] = HEK293 cells stably expressing canine TRPM8, icilin at ~80% maximal response, Table 6, read-out: IC50

| SMILES | % Inh @ 0.2 μM (canine TRPM8; Table 6) [%] | also measured |
| --- | --- | --- |
| CCn1c(=NS(=O)(=O)c2ccccc2)n(Cc2ccc(C(F)(F)F)c(F)c2)c2cc(C(F)(F)F)ccc21 [Compound 37] | – | pIC50 (canine TRPM8): 8.30; inhibition at 0.2 µM (canine TRPM8; Table 6): 93%; % Inhibition of icilin-induced "wet-dog" shakes (Male Sprague Dawley rats): 0.6% |
| CC(C)n1c(=NS(=O)(=O)c2ccccc2)n(Cc2ccc(OC(F)(F)F)cc2)c2cc(Cl)ccc21 [Compound 45] | 66 | – |
| Cn1c(=NS(=O)(=O)c2ccccc2)n(Cc2ccc(OC(F)(F)F)cc2)c2cc(F)ccc21 [Compound 46] | 1 | % Inh @ 1 μM (canine TRPM8; re-test, Table 7): 58% |
| O=S(=O)(N=c1n(Cc2ccc(OC(F)(F)F)cc2)c2ccccc2n1CC1CC1)c1ccccc1 [Compound 48] | 67 | – |
| O=S(=O)(N=c1n(Cc2ccc(C(F)(F)F)cc2)c2ccccc2n1CC1CC1)c1ccccc1 [Compound 49] | – | inhibition at 0.2 µM (canine TRPM8; Table 6): 71%; pIC50 (canine TRPM8; [1]): 6.96 |
| O=S(=O)(/N=c1\n(Cc2ccc(C(F)(F)F)c(F)c2)c2ccccc2n1CC1CC1)c1ccccc1 [Compound 50, N-[1-Cyclopropylmethyl-3-(3-fluoro-4-trifluoromethyl-benzyl)-1,3-dihydro-benzimidazol-2-ylidene]-benzenesulfonamide] | – | inhibition at 0.2 µM (canine TRPM8; Table 6): 94%; pIC50 (canine TRPM8; [1]): 7.07 |
| O=S(=O)(N=c1n(Cc2ccc(C(F)(F)F)c(F)c2)c2cccc3c2n1CCC3)c1ccccc1 [Compound 51] | 14 | – |
| O=S(=O)(N=c1n(Cc2ccc(OC(F)(F)F)cc2)c2cccc3c2n1CCC3)c1ccccc1 [Compound 52] | 18 | – |
| O=S(=O)(N=c1n(Cc2ccc(C(F)(F)F)cc2)c2cccc3c2n1CCC3)c1ccccc1 [Compound 53] | 16 | – |
| Cc1ccc2c(c1)n(C)c(=NS(=O)(=O)c1ccccc1)n2Cc1ccc(OC(F)(F)F)cc1 [Compound 54] | 6 | % Inh @ 1 μM (canine TRPM8; re-test, Table 7): 55%; pIC50 (canine TRPM8; re-test, samples diluted from 10 mM stock with 100% DMSO before addition to assay buffer, Table 7, read-out: IC50): 6.19 |
| Cc1ccc2c(c1)n(C)/c(=N/S(=O)(=O)c1ccccc1)n2Cc1ccc(C(F)(F)F)c(F)c1 [Compound 55, N-[1-(3-Fluoro-4-trifluoromethyl-benzyl)-3,5-dimethyl-1,3-dihydro-benzimidazol-2-ylidene]-benzene sulfonamide] | – | inhibition at 0.2 µM (canine TRPM8; Table 6): 18% |
| Cc1ccc2c(c1)n(C)c(=NS(=O)(=O)c1ccccc1)n2Cc1ccc(C(F)(F)F)cc1 [Compound 56] | 1 | % Inh @ 1 μM (canine TRPM8; re-test, Table 7): 40% |
| Cn1c(=NS(=O)(=O)c2ccccc2)n(Cc2ccc(C(F)(F)F)c(F)c2)c2ccc(C(F)(F)F)cc21 [Compound 57] | 45 | – |
| O=S(=O)(/N=c1\n(Cc2ccc(C(F)(F)F)cc2)c2cccc3c2n1CCO3)c1ccccc1 [Compound 63, N-[1-(4-Trifluoromethyl-benzyl)-3,4-dihydro-1H-5-oxa-1,2a-diaza-acenaphthylen-2-ylidene]-benzenesulfonamide TFA salt] | – | inhibition at 0.2 µM (canine TRPM8; Table 6): 34% |

Now from value to compound, other results behind:

| % Inh @ 0.2 μM (canine TRPM8; Table 6) [%] | SMILES | also measured |
| --- | --- | --- |
| 25 | Cn1c(=NS(=O)(=O)c2ccccc2)n(Cc2ccc(OC(F)(F)F)cc2)c2ccc(C(F)(F)F)cc21 [Compound 58] | – |
| 20 | Cn1c(=NS(=O)(=O)c2ccccc2)n(Cc2ccc(C(F)(F)F)cc2)c2ccc(C(F)(F)F)cc21 [Compound 59] | – |
| 5 | Cc1cc2c(cc1C)n(Cc1ccc(OC(F)(F)F)cc1)c(=NS(=O)(=O)c1ccccc1)n2C [Compound 60] | % Inh @ 1 μM (canine TRPM8; re-test, Table 7): 48% |
| 14 | Cc1cc2c(cc1C)n(Cc1ccc(C(F)(F)F)c(F)c1)c(=NS(=O)(=O)c1ccccc1)n2C [Compound 61] | – |
| 19 | Cc1cccc2c1n(Cc1ccc(C(F)(F)F)c(F)c1)c(=NS(=O)(=O)c1ccccc1)n2C [Compound 62] | – |
| 61 | O=S(=O)(N=c1n2c3c(cccc3n1-c1ccc(OC(F)(F)F)cc1)OCC2)c1ccccc1 [Compound 64] | – |

— patent US9636345B2, “Benzimidazole derivatives useful TRPM8 channel modulators” (Janssen Pharmaceutica NV, priority 2009, dated 2017)
